Organism: Rattus norvegicus
Test: Open TG-GATES - Regimen: Single
Assay type: toxicity, organism-based, Sprague-Dawley
Set-up: regimen Single, gender Male, age 6 weeks
Conditions: in vivo, po, route gavage; for gamma-GTP / ALP / ALT / AST / BUN / CRE / Ca / Cl / DBIL / GLC / IP / K / LDH / Na / PL / RALB / TBIL / TC / TG / TP: tissue Plasma; for APTT / Bas / Eos / Fbg / Ht / Lym / MCH / MCHC / MCV / Mono / Neu / PT / Plat / RBC / Ret / WBC: tissue Blood; for KIDNEY_L / KIDNEY_R / KIDNEY_TOTAL: tissue Kidney; for LIVER: tissue Liver

## Cc1cccc(Nc2cc(Cl)nc(SCC(=O)O)n2)c1C [PIRINIXIC ACID]
0 mg/kg, 24 h, dose level Control
  gamma-GTP: 1.2 IU/L
10 mg/kg, 3 h, dose level Low
  TERMINAL_BW: 205.8 g
  APTT: 14 s
  Bas: 0%
  Eos: 0.6%
  Fbg: 312.8 mg/dL
  Ht: 39.2%
  Lym: 70.2%
  MCH: 21.2 pg
  MCHC: 34.1%
  MCV: 62.1 fL
  Mono: 2.6%
  Neu: 26%
  PT: 12.2 s
  Plat: 125.7 x10_4/uL
  RBC: 631.2 x10_4/ul
  Ret: 8.2%
  WBC: 82.9 x10_2/uL
  KIDNEY_L: 0.8 g
  KIDNEY_R: 0.9 g
  KIDNEY_TOTAL: 1.7 g
  LIVER: 8.8 g
  ALP: 1833.4 IU/L
  ALT: 49 IU/L
  AST: 74 IU/L
  BUN: 11 mg/dL
  CRE: 0.2 mg/dL
  Ca: 11.2 mg/dL
  Cl: 103.8 meq/L
  DBIL: 0.058 mg/dL
  GLC: 191 mg/dL
  IP: 11.1 mg/dL
  K: 4.1 meq/L
  LDH: 66.4 IU/L
  Na: 139.8 meq/L
  PL: 173 mg/dL
  RALB: 2.6 g/dL
  TBIL: 0.044 mg/dL
  TC: 87.6 mg/dL
  TG: 161 mg/dL
  TP: 5.7 g/dL
  gamma-GTP: 1 IU/L
10 mg/kg, 6 h, dose level Low
  TERMINAL_BW: 203.8 g
  APTT: 16 s
  Bas: 0%
  Eos: 0.6%
  Fbg: 266.8 mg/dL
  Ht: 39.9%
  Lym: 76.2%
  MCH: 22 pg
  MCHC: 34.3%
  MCV: 64.2 fL
  Mono: 2%
  Neu: 20.6%
  PT: 12.4 s
  Plat: 111.3 x10_4/uL
  RBC: 622.6 x10_4/ul
  Ret: 7.5%
  WBC: 80 x10_2/uL
  KIDNEY_L: 0.9 g
  KIDNEY_R: 0.8 g
  KIDNEY_TOTAL: 1.7 g
  LIVER: 7.9 g
  ALP: 1630.4 IU/L
  ALT: 43.6 IU/L
  AST: 79.2 IU/L
  BUN: 10 mg/dL
  CRE: 0.2 mg/dL
  Ca: 10.8 mg/dL
  Cl: 106.2 meq/L
  DBIL: 0.028 mg/dL
  GLC: 190.2 mg/dL
  IP: 10.7 mg/dL
  K: 4.1 meq/L
  LDH: 55.8 IU/L
  Na: 141.8 meq/L
  RALB: 2.6 g/dL
  TBIL: 0.038 mg/dL
  TC: 70.8 mg/dL
  TG: 76.8 mg/dL
  TP: 5.5 g/dL
  gamma-GTP: 1.2 IU/L
10 mg/kg, 9 h, dose level Low
  TERMINAL_BW: 203.6 g
  APTT: 16.8 s
  Bas: 0%
  Eos: 0.6%
  Fbg: 248.4 mg/dL
  Ht: 38.9%
  Lym: 73.6%
  MCH: 21.7 pg
  MCHC: 34.5%
  MCV: 63 fL
  Mono: 2.2%
  Neu: 23%
  PT: 12.5 s
  Plat: 105.9 x10_4/uL
  RBC: 618 x10_4/ul
  Ret: 7.7%
  WBC: 67.5 x10_2/uL
  KIDNEY_L: 0.9 g
  KIDNEY_R: 0.9 g
  KIDNEY_TOTAL: 1.7 g
  LIVER: 7.8 g
  ALP: 1462.6 IU/L
  ALT: 35.4 IU/L
  AST: 69.2 IU/L
  BUN: 9.4 mg/dL
  CRE: 0.2 mg/dL
  Ca: 10.6 mg/dL
  Cl: 105 meq/L
  DBIL: 0.024 mg/dL
  GLC: 191.2 mg/dL
  IP: 10.6 mg/dL
  K: 3.7 meq/L
  LDH: 53.2 IU/L
  Na: 141.2 meq/L
  PL: 121.8 mg/dL
  RALB: 2.6 g/dL
  TBIL: 0.034 mg/dL
  TC: 63.8 mg/dL
  TG: 76.6 mg/dL
  TP: 5.3 g/dL
  gamma-GTP: 1.4 IU/L
10 mg/kg, 24 h, dose level Low
  TERMINAL_BW: 212.4 g
  APTT: 15.7 s
  Bas: 0.2%
  Eos: 0.8%
  Fbg: 217.8 mg/dL
  Ht: 38.2%
  Lym: 77%
  MCH: 21.4 pg
  MCHC: 34.2%
  MCV: 62.6 fL
  Mono: 2.2%
  Neu: 19.6%
  PT: 12.8 s
  Plat: 111.5 x10_4/uL
  RBC: 611 x10_4/ul
  Ret: 7.3%
  WBC: 90.6 x10_2/uL
  KIDNEY_L: 0.9 g
  KIDNEY_R: 0.9 g
  KIDNEY_TOTAL: 1.9 g
  LIVER: 10.8 g
  ALP: 1927 IU/L
  ALT: 47 IU/L
  AST: 71.4 IU/L
  BUN: 13.6 mg/dL
  CRE: 0.2 mg/dL
  Ca: 11 mg/dL
  Cl: 104.2 meq/L
  DBIL: 0.022 mg/dL
  GLC: 191.4 mg/dL
  IP: 8.7 mg/dL
  K: 4 meq/L
  LDH: 57 IU/L
  Na: 143.2 meq/L
  PL: 108.8 mg/dL
  RALB: 2.5 g/dL
  TBIL: 0.034 mg/dL
  TC: 54.8 mg/dL
  TG: 49.4 mg/dL
  TP: 5.1 g/dL
  gamma-GTP: 1 IU/L
